Results: ChEMBL document CHEMBL3603786, “The 2',4'-dihydroxychalcone could be explored to develop new inhibitors against the glycerol-3-phosphate dehydrogenase from Leishmania species” (Bioorg Med Chem Lett, 2015)

Tests used:
[1] = system: Leishmania amazonensis; assay: Antileishmanial activity against promastigotes of Leishmania amazonensis MPRO/BR/1972/M1841-LV-79 after 72 hrs by MTT assay; format: functional, organism-based; conditions: MPRO/BR/1972/M1841-LV-79, 72 h
[2] = Cytotoxicity against Swiss albino mouse peritoneal macrophages after 24 hrs by MTT assay; format: cell-based, Peritoneal macrophage cell
[3] = Selectivity index, ratio of CC50 for Swiss albino mouse peritoneal macrophages to IC50 for promastigotes of Leishmania amazonensis MPRO/BR/1972/M1841-LV-79; format: functional
[4] = system: Leishmania amazonensis; assay: Ratio of pentamidine IC50 to compound IC50 for Leishmania amazonensis MPRO/BR/1972/M1841-LV-79; format: functional

SMILES: O=C(/C=C/c1ccccc1)c1ccc(O)cc1O [2',4'-DIHYDROXYCHALCONE]
- IC50 [1]: 0.4 µM
- CC50 at 24 h [2]: 417 µM
- Ratio CC50/IC50 [3]: 1041.7
- Ratio IC50 [4]: 16

SMILES: N=C(N)c1ccc(OCCCCCOc2ccc(C(=N)N)cc2)cc1 [PENTAMIDINE]
- IC50 [1]: 6.7 µM
- CC50 at 24 h [2]: 35.7 µM
- Ratio CC50/IC50 [3]: 5.3
